Laboratory results published in US9695155B2, “Herbicidal substituted pyrimidinyloxy benzene compounds” (E. I. DU PONT DE NEMOURS AND COMPANY, priority 2013, dated 2017).

Columns and labels:
[1] = test system: ragweed; test: Test A postemergence; type: in vivo, Ambrosia elatior; details: 0 to 100 scale, 0 no effect, 100 complete control
How it was run: (§1)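 Visual injury scored 0–100 (100 = complete control) against untreated controls about 10 days after treatment in a greenhouse. Test chemicals, formulated with surfactant in non-phytotoxic solvent, were sprayed on soil preemergence or on 2-10 cm, one- to two-leaf plants postemergence.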

[2] = test system: oilseed rape; test: Test C preemergence; type: in vivo, Brassica napus; details: Brassica napus, pre-emergence
How it was run: (§2)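 Visual injury score versus untreated controls, 0 = no effect, 100 = complete control, taken 13 to 15 days after treatment in the greenhouse. Pre-emergence pots held loam/sand; post-emergence plants grew in sphagnum peat/vermiculite mix and were sprayed at the 1- to 4-leaf stage.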

[3] = test system: oilseed rape; test: Test C postemergence; type: in vivo, Brassica napus
How it was run: as §2

[4] = test system: blackgrass; test: Test C preemergence; type: in vivo, Alopecurus myosuroides; details: Alopecurus myosuroides, pre-emergence
How it was run: as §2

[5] = test system: Italian ryegrass; test: Test C preemergence; type: in vivo, Lolium multiflorum; details: Lolium multiflorum, pre-emergence
How it was run: as §2

[6] = test system: ragweed; test: Test C preemergence; type: in vivo, Ambrosia elatior; details: Ambrosia artemisiifolia, pre-emergence
How it was run: as §2

[7] = test system: barnyardgrass; test: Test C preemergence; type: in vivo, Echinochloa crus-galli; details: Echinochloa crus-galli, pre-emergence
How it was run: as §2

[8] = test system: blackgrass; test: Test C postemergence; type: in vivo, Alopecurus myosuroides; details: Alopecurus myosuroides, post-emergence
How it was run: as §2

[9] = test system: yellow nutsedge; test: Test C preemergence; type: in vivo, Cyperus esculentus; details: Cyperus, pre-emergence
How it was run: as §2

[10] = test system: morningglory; test: Test C preemergence; type: in vivo, Ipomoea coccinea; details: Ipomoea, pre-emergence
How it was run: as §2

[11] = test system: giant foxtail; test: Test A postemergence; type: in vivo, Setaria faberii; details: Setaria faberi, post-emergence, 240 h, 0 to 100 scale, 0 no effect, 100 complete control, read-out: Plant response rating, Foxtail, Giant
How it was run: as §1

[12] = test system: Italian ryegrass; test: Test A postemergence; type: in vivo, Lolium multiflorum; details: 0 to 100 scale, 0 no effect, 100 complete control
How it was run: as §1

[13] = test system: large (Lg) crabgrass; test: Test C postemergence; type: in vivo, Digitaria sanguinalis; details: Digitaria sanguinalis, post-emergence
How it was run: as §2

[14] = test system: barnyardgrass; test: Test A postemergence; type: in vivo, Echinochloa crus-galli; details: Echinochloa crus-galli, post-emergence, 240 h, 0 to 100 scale, 0 no effect, 100 complete control, read-out: Plant response rating, Barnyardgrass
How it was run: as §1

[15] = test system: kochia; test: Test A postemergence; type: in vivo, Kochia scoparia; details: 0 to 100 scale, 0 no effect, 100 complete control
How it was run: as §1

[16] = test system: johnsongrass; test: Test C preemergence; type: in vivo, Sorghum halepense; details: Sorghum halepense, pre-emergence
How it was run: as §2

[17] = test system: soybean; test: Test C preemergence; type: in vivo, Glycine max; details: Glycine max, pre-emergence
How it was run: as §2

[18] = test system: wheat; test: Test A postemergence; type: in vivo, Triticum aestivum; details: Triticum aestivum, post-emergence, 240 h, 0 to 100 scale, 0 no effect, 100 complete control, read-out: Plant response rating, Wheat
How it was run: as §1

With `N#Cc1cccc(Oc2ncc(Cl)cn2)c1-n1cc(C(F)F)cn1` [Compound 253, 3-(5-chloropyrimidin-2-yl)oxy-2-[4-(difluoromethyl)-1H-pyrazol-1-yl]benzonitrile] the “Plant response rating, Ragweed” value ([1]; 31 g ai/ha) was 20, the “Plant response rating, Ragweed” value ([1]; 125 g ai/ha) was 80 and the plant injury at 16 g/ha ([2]; 16 g ai/ha, preemergence, scale 0 to 100 (0 no effect, 100 complete control), read-out: Oilseed Rape plant response rating) was 75%. The plant injury at 125 g/ha ([2]; 125 g ai/ha, preemergence, scale 0 (no effect) to 100 (complete control), read-out: Oilseed Rape plant response rating) was 100%, the plant injury at 62 g/ha ([2]; Preemergence, 62 g ai/ha, scale 0 to 100, 0 no effect, 100 complete control, read-out: Plant response rating, Oilseed Rape) was 100% and the “Oilseed Rape plant response rating” value ([3]; 31 g ai/ha, postemergence, visual rating, scale 0 to 100 (0 no effect, 100 complete control), 13 to 15 days) was 60. For the same compound, the plant injury at 16 g/ha ([3]; Brassica napus, post-emergence, 16 g ai/ha, postemergence, 0 is no effect, 100 is complete control, read-out: Plant response rating (0 to 100), Oilseed Rape) was 5%, the plant injury at 125 g/ha ([3]; Brassica napus, post-emergence, 125 g ai/ha, postemergence, visual rating, scale 0 to 100 (0 no effect, 100 complete control), read-out: Plant response rating, Oilseed Rape) was 80% and the plant injury at 62 g/ha ([3]; Brassica napus, post-emergence, Postemergence, 62 g ai/ha, scale 0 to 100 (0 no effect, 100 complete control), 13 to 15 days, read-out: Plant response rating, Oilseed Rape) was 10%. It also gave a pest or weed control at 16 g/ha ([4]; 16 g ai/ha, preemergence, scale 0 to 100 (0 no effect, 100 complete control), read-out: Blackgrass plant response rating) of 0%, a pest or weed control at 125 g/ha ([4]; 125 g ai/ha, preemergence, scale 0 (no effect) to 100 (complete control), read-out: Blackgrass plant response rating) of 90% and a pest or weed control at 62 g/ha ([4]; Preemergence, 62 g ai/ha, scale 0 to 100, 0 no effect, 100 complete control, read-out: Plant response rating, Blackgrass) of 90%. The pest or weed control at 16 g/ha ([5]; 16 g ai/ha, preemergence, scale 0 to 100 (0 no effect, 100 complete control), read-out: Ryegrass, Italian plant response rating) was 0%, the pest or weed control at 125 g/ha ([5]; 125 g ai/ha, preemergence, scale 0 (no effect) to 100 (complete control), read-out: Ryegrass, Italian plant response rating) was 80% and the pest or weed control at 62 g/ha ([5]; Preemergence, 62 g ai/ha, scale 0 to 100, 0 no effect, 100 complete control, read-out: Plant response rating, Ryegrass, Italian) was 35%. It also gave a pest or weed control at 16 g/ha ([6]; 16 g ai/ha, preemergence, scale 0 to 100 (0 no effect, 100 complete control), read-out: Ragweed plant response rating) of 35%, a pest or weed control at 125 g/ha ([6]; 125 g ai/ha, preemergence, scale 0 (no effect) to 100 (complete control), read-out: Ragweed plant response rating) of 100% and a pest or weed control at 62 g/ha ([6]; Preemergence, 62 g ai/ha, scale 0 to 100, 0 no effect, 100 complete control, read-out: Plant response rating, Ragweed) of 85%. For the same compound, the pest or weed control at 16 g/ha ([7]; 16 g ai/ha, preemergence, scale 0 to 100 (0 no effect, 100 complete control), read-out: Barnyardgrass plant response rating) was 30%, the pest or weed control at 125 g/ha ([7]; 125 g ai/ha, preemergence, scale 0 (no effect) to 100 (complete control), read-out: Barnyardgrass plant response rating) was 100% and the pest or weed control at 62 g/ha ([7]; Preemergence, 62 g ai/ha, scale 0 to 100, 0 no effect, 100 complete control, read-out: Plant response rating, Barnyardgrass) was 100%. The pest or weed control at 16 g/ha ([8]; 16 g ai/ha, postemergence, 0 is no effect, 100 is complete control, read-out: Plant response rating (0 to 100), Blackgrass) was 0%, the pest or weed control at 31 g/ha ([8]; 31 g ai/ha, postemergence, visual rating, scale 0 to 100 (0 no effect, 100 complete control), 13 to 15 days, read-out: Blackgrass plant response rating) was 0% and the pest or weed control at 125 g/ha ([8]; 125 g ai/ha, postemergence, visual rating, scale 0 to 100 (0 no effect, 100 complete control), read-out: Plant response rating, Blackgrass) was 10%. The pest or weed control at 62 g/ha ([8]; Postemergence, 62 g ai/ha, scale 0 to 100 (0 no effect, 100 complete control), 13 to 15 days, read-out: Plant response rating, Blackgrass) was 0%, the pest or weed control at 16 g/ha ([9]; 16 g ai/ha, preemergence, scale 0 to 100 (0 no effect, 100 complete control), read-out: Nutsedge, Yellow plant response rating) was 0% and the pest or weed control at 125 g/ha ([9]; 125 g ai/ha, preemergence, scale 0 (no effect) to 100 (complete control), read-out: Nutsedge, Yellow plant response rating) was 65%. It also gave a pest or weed control at 62 g/ha ([9]; Preemergence, 62 g ai/ha, scale 0 to 100, 0 no effect, 100 complete control, read-out: Plant response rating, Nutsedge, Yellow) of 20%, a pest or weed control at 16 g/ha ([10]; 16 g ai/ha, preemergence, scale 0 to 100 (0 no effect, 100 complete control), read-out: Morningglory plant response rating) of 40% and a pest or weed control at 125 g/ha ([10]; 125 g ai/ha, preemergence, scale 0 (no effect) to 100 (complete control), read-out: Morningglory plant response rating) of 100%. The pest or weed control at 62 g/ha ([10]; Preemergence, 62 g ai/ha, scale 0 to 100, 0 no effect, 100 complete control, read-out: Plant response rating, Morningglory) was 98%, the pest or weed control at 31 g/ha ([11]; 31 g ai/ha) was 20% and the pest or weed control at 125 g/ha ([11]; 125 g ai/ha) was 100%. The “Plant response rating, Ryegrass, Italian” value ([12]; 31 g ai/ha) was 0, the “Plant response rating, Ryegrass, Italian” value ([12]; 125 g ai/ha) was 50 and the pest or weed control at 16 g/ha ([13]; 16 g ai/ha, postemergence, 0 is no effect, 100 is complete control, read-out: Plant response rating (0 to 100), Crabgrass, Large) was 5%. For the same compound, the pest or weed control at 31 g/ha ([13]; 31 g ai/ha, postemergence, visual rating, scale 0 to 100 (0 no effect, 100 complete control), 13 to 15 days, read-out: Crabgrass, Large plant response rating) was 5%, the pest or weed control at 125 g/ha ([13]; 125 g ai/ha, postemergence, visual rating, scale 0 to 100 (0 no effect, 100 complete control), read-out: Plant response rating, Crabgrass, Large) was 20% and the pest or weed control at 62 g/ha ([13]; Postemergence, 62 g ai/ha, scale 0 to 100 (0 no effect, 100 complete control), 13 to 15 days, read-out: Plant response rating, Crabgrass, Large) was 15%. For the same compound, the pest or weed control at 31 g/ha ([14]; 31 g ai/ha) was 20%, the pest or weed control at 125 g/ha ([14]; 125 g ai/ha) was 100% and the “Plant response rating, Kochia” value ([15]; 31 g ai/ha) was 100. For the same compound, the “Plant response rating, Kochia” value ([15]; 125 g ai/ha) was 100, the pest or weed control at 16 g/ha ([16]; 16 g ai/ha, preemergence, scale 0 to 100 (0 no effect, 100 complete control), read-out: Johnsongrass plant response rating) was 15% and the pest or weed control at 125 g/ha ([16]; 125 g ai/ha, preemergence, scale 0 (no effect) to 100 (complete control), read-out: Johnsongrass plant response rating) was 100%. The pest or weed control at 62 g/ha ([16]; Preemergence, 62 g ai/ha, scale 0 to 100, 0 no effect, 100 complete control, read-out: Plant response rating, Johnsongrass) was 60%, the plant injury at 16 g/ha ([17]; 16 g ai/ha, preemergence, scale 0 to 100 (0 no effect, 100 complete control), read-out: Soybean plant response rating) was 40% and the plant injury at 125 g/ha ([17]; 125 g ai/ha, preemergence, scale 0 (no effect) to 100 (complete control), read-out: Soybean plant response rating) was 98%. The plant injury at 62 g/ha ([17]; Preemergence, 62 g ai/ha, scale 0 to 100, 0 no effect, 100 complete control, read-out: Plant response rating, Soybean) was 95%, the plant injury at 31 g/ha ([18]; 31 g ai/ha) was 20% and the plant injury at 125 g/ha ([18]; 125 g ai/ha) was 30%.
